Assay results: paper PMC6897945, “CytA, a reductase in the cytorhodin biosynthesis pathway, inactivates anthracycline drugs in Streptomyces” (Communications Biology, 2019)
In brackets after ≈: the same amount, converted by molar mass. Read-outs that look alike come from different tables or passages of the source.

What was measured:
[1] = test system: Staphylococcus aureus ATCC 29213; experiment: Antibacterial activity, broth dilution MIC; assay type: cell-based
Experimental: (§1) The antibacterial activities of compounds 1–13 were assessed using twofold serial dilutions of antibacterial agents in MH broth, according to previously reported standard methods provided by Clinical and Laboratory Standards Institute (CLSI)[30]. These compounds were tested for their antibacterial activities against Bacillus subtilis BS01, Staphyloccocus aureus ATCC 29213, Staphyloccocus aureus 745524, Bacillus thuringiensis BT01, and Enterococcus faecalis ATCC 29212 using a broth dilution method.

B. thuringiensis BT01 = experiment: Antibacterial activity, broth dilution MIC; assay type: cell-based; details: Bacillus thuringiensis
Experimental: as §1

E. faecalis ATCC 29212 = experiment: Antibacterial activity, broth dilution MIC; assay type: cell-based; details: Enterococcus faecalis
Experimental: as §1

B. subtilis BS01 = experiment: Antibacterial activity, broth dilution MIC; assay type: cell-based; details: Bacillus subtilis
Experimental: as §1

[2] = test system: Staphylococcus aureus 745524; experiment: Antibacterial activity, broth dilution MIC; assay type: cell-based
Experimental: as §1

CytA = experiment: Enzyme kinetics of CytA (formation of deglycosylation products, anaerobic); assay type: biochemical, Streptomyces sp. SCSIO 1666; details: substrate of CytA; 0.5 μM CytA, 20 μM NADH, anaerobic
Experimental: Enzymatic reactions were carried out under anaerobic conditions in an anaerobic workstation (Don Whitley Scientific A45) containing a gas phase of N2/H2/CO2 (80:10: 10%, by vol.). ^1H, ^13C, and 2D (COSY, HMQC, HMBC and NOESY) NMR spectra were recorded at 25 °C with an Avance 700 MHz spectrometer instruments (Bruker). High-resolution mass spectra were obtained with a Maxis quadrupole-time-of-flight mass spectrometer (Bruker).
To validate the in vitro biochemical activities of CytA, we overexpressed and purified this enzyme as a soluble N-terminally His6-tagged protein from E. coli (Fig. 2a). Tris-Cl buffer was made O2 free by boiling, followed by cooling under N2 flow; NADH stock solution (dissolved in Tris-Cl), substrate stock solution (dissolved in DMSO), and enzyme solution (dissolved in Tris-Cl supplemented with 10% glycerin) were subjected to O2 eliminating process in the anaerobic workstations for at least two cycles (40 min for one cycle). CytA enzymatic activity was tested in 50 μL volume containing 50 mM Tris-Cl (pH 8.0), 25 μM substrate, 0.5 μM CytA, and 20 μM NADH, at 37 °C for 30 min. The reaction was quenched with the addition to 2 volumes MeOH. After centrifugation to remove protein, supernatants were analyzed with Agilent HPLC equipment using a Phenomenex Prodigy ODS column S5 (150 × 4.60 mm, 5 μ) and UV detection at 254 and 500 nm. Samples were eluted with a gradient elution of phase A containing 0.1% TFA in ddH2O and phase B containing 100% acetonitrile, at a flow rate of 1 mL/min.
Kinetic analyses of CytA with putative substrates 6–10, daunorubicin, doxorubicin, idarubicin, epirubicin and pirarubicin, involved a reaction volume of 20 μL consisting of 50 mM Tris-Cl (pH 8.0), 0.5 μM CytA, 20 μM NADH, […]
All assays were performed in triplicate and Km and Vmax values were calculated on the basis of curve fitting to the Michaelis-Menten equation: v = Vmax *[S]/(Km + [S]) (Supplementary Fig. 7).
For kinetics of CytA, Origin 9.0 (OriginLab Co.) was used to analyze on the basis of curve fitting to the Michaelis-Menten equation. Experiments were performed in triplicate independently. For antibacterial activity, experiments were performed in triplicate using 96-well plates.

[3] = test system: A549 human lung cancer cell line; experiment: Cytotoxic activity, MTT method; assay type: cell-based; details: A549, read-out: Cytotoxic activities IC50, A549
Text: (§2) All data were obtained in triplicate and are presented as means.

[4] = test system: HeLa human cervical carcinoma cell line; experiment: Cytotoxic activity, MTT method; assay type: cell-based; details: read-out: Cytotoxic activities IC50, HeLa
Text: as §2

[5] = test system: HepG2 human hepatocellular carcinoma cell line; experiment: Cytotoxic activity, MTT method; assay type: cell-based; details: HepG2, read-out: Cytotoxic activities IC50, HepG2
Text: as §2

[6] = test system: MDA-MB-468 human triple negative breast adenocarcinoma cell line; experiment: Cytotoxic activity, MTT method; assay type: cell-based; details: MDA-MB-468, read-out: Cytotoxic activities IC50, MDA-MB-468
Text: as §2

[7] = test system: MDA-MB-231 human triple negative breast adenocarcinoma cell line; experiment: Cytotoxic activity, MTT method; assay type: cell-based; details: MDA-MB-231, read-out: Cytotoxic activities IC50, MDA-MB-231
Text: as §2

[8] = test system: MCF-7 human breast adenocarcinoma cell line; experiment: Cytotoxic activity, MTT method; assay type: cell-based; details: MCF7, read-out: Cytotoxic activities IC50, MCF-7
Text: as §2

[9] = test system: RKO human colorectal carcinoma cell line; experiment: Cytotoxic activity, MTT method; assay type: cell-based; details: read-out: Cytotoxic activities IC50, RKO
Text: as §2

[10] = Cytotoxic activity, MTT method; assay type: cell-based; details: human
Text: as §2

[11] = Staphylococcus aureus, ATCC29213, read-out: MIC values, SA1
[12] = ATCC29212, read-out: MIC values, EF
[13] = Staphylococcus aureus, 745524, read-out: MIC values, SA2
[14] = ATCC29213, Staphylococcus aureus ATCC 29213, triplicate, read-out: MIC values, SA1
[15] = B. thuringiensis BT01, triplicate, read-out: MIC values, BT
[16] = ATCC29212, E. faecalis ATCC 29212, triplicate, read-out: MIC values, EF
[17] = B. subtilis BS01, triplicate, read-out: MIC values, BS
[18] = Staphylococcus aureus 745524, triplicate, read-out: MIC values, SA2
[19] = Huvec-12 normal cell line, read-out: Cytotoxic activities IC50, Huvec-12
[20] = L02 normal cell line, read-out: Cytotoxic activities IC50, L02

| MIC [1, 14] [µg/mL] | MIC (B. thuringiensis BT01; [15]) [µg/mL] | MIC (E. faecalis ATCC 29212; [16]) [µg/mL] | MIC (B. subtilis BS01; [17]) [µg/mL] | MIC [2, 18] [µg/mL] | SMILES | Km (CytA) [µM] | kcat (CytA) [s⁻¹] | IC50 [3] [µM] | IC50 [4] [µM] | IC50 [5] [µM] | IC50 [6] [µM] | IC50 [7] [µM] | IC50 [8] [µM] | IC50 [9] [µM] | further results |
| --- | --- | --- | --- | --- | --- | --- | --- | --- | --- | --- | --- | --- | --- | --- | --- |
|  |  |  |  |  | CN[C@H](CC(C)C)C(=O)N[C@H]1C(=O)N[C@@H](CC(N)=O)C(=O)N[C@H]2C(=O)N[C@H]3C(=O)N[C@H](C(=O)N[C@H](C(=O)O)c4cc(O)cc(O)c4-c4cc3ccc4O)[C@H](O)c3ccc(c(Cl)c3)Oc3cc2cc(c3O[C@@H]2O[C@H](CO)[C@@H](O)[C@H](O)[C@H]2O[C@H]2C[C@](C)(N)[C@H](O)[C@H](C)O2)Oc2ccc(cc2Cl)[C@H]1O [Van, Vancomycin, reference compound] |  |  |  |  |  |  |  |  |  | MIC [1, 11]: 0.5 µg/mL (≈ 0.345 µM); MIC (B. thuringiensis BT01; BT01, read-out: MIC values, BT): 0.5 µg/mL (≈ 0.345 µM); MIC (E. faecalis ATCC 29212; [12]): 0.25 µg/mL (≈ 0.173 µM); MIC (B. subtilis BS01; BS01, read-out: MIC values, BS): 0.5 µg/mL (≈ 0.345 µM); MIC [2, 13]: 1 µg/mL (≈ 0.69 µM) |
| 4 (≈ 11.4 µM) | 4 (≈ 11.4 µM) | 2 (≈ 5.72 µM) | 4 (≈ 11.4 µM) | 8 (≈ 22.9 µM) | CC1(C)S[C@@H]2[C@H](NC(=O)[C@H](N)c3ccccc3)C(=O)N2[C@H]1C(=O)O [Amp, Ampicillin, reference compound] |  |  |  |  |  |  |  |  |  |  |
|  |  |  |  |  | CC[C@@]1(O)C[C@H](O[C@H]2C[C@H](N(C)C)[C@H](O)[C@H](C)O2)c2c(O)c3c(c(O)c2[C@H]1C(=O)OC)C(=O)c1cccc(O)c1C3=O [Compound 9, ε-rhodomycin] | 8.5 | 0.0055 | 1.92 | 1.01 | 1.91 | 13.5 | 6.63 | 11.7 | 2.88 | MIC [1, 11]: 4 µg/mL (≈ 6.83 µM); MIC (B. thuringiensis BT01; BT01, read-out: MIC values, BT): 4 µg/mL (≈ 6.83 µM); MIC (E. faecalis ATCC 29212; [12]): 8 µg/mL (≈ 13.7 µM); MIC (B. subtilis BS01; BS01, read-out: MIC values, BS): 8 µg/mL (≈ 13.7 µM); MIC [2, 13]: 4 µg/mL (≈ 6.83 µM); IC50 [10, 19]: 7.21 µM; IC50 [10, 20]: 14 µM |
|  |  |  |  |  | COc1cccc2c1C(=O)c1c(O)c3c(c(O)c1C2=O)C[C@@](O)(C(=O)CO)C[C@@H]3O[C@H]1C[C@H](N)[C@@H](O)[C@H](C)O1 [Compound 25, epirubicin, reference compound] | 38.6 | 0.00883 |  |  |  |  |  |  |  |  |
| > 32 | > 32 | > 32 | > 32 | > 32 | CC[C@@]1(O)CCc2c(O)c3c(c(O)c2[C@H]1O)C(=O)c1cccc(O)c1C3=O [Compound 13] |  |  |  |  |  |  |  |  |  |  |
|  |  |  |  |  | COc1cccc2c1C(=O)c1c(O)c3c(c(O)c1C2=O)C[C@@](O)(C(=O)CO)C[C@@H]3O[C@H]1C[C@H](N)[C@H](O)[C@H](C)O1 [Compound 23, doxorubicin, reference compound] | 31 | 0.0102 | 2.31 | 0.83 | 0.41 | 2.11 | 16.9 | 0.9 | 1.45 | IC50 ([10]; Huvec-12 normal umbilical vein endothelial cells, Huvec-12 normal cell line, read-out: Cytotoxic activities IC50, Huvec-12): 6.31 µM; IC50 ([10]; L02 normal hepatic cells, L02 normal cell line, read-out: Cytotoxic activities IC50, L02): 7.67 µM |

| SMILES | MIC [1, 14] [µg/mL] | MIC (B. thuringiensis BT01; [15]) [µg/mL] | MIC (E. faecalis ATCC 29212; [16]) [µg/mL] | MIC (B. subtilis BS01; [17]) [µg/mL] | MIC [2, 18] [µg/mL] | Km (CytA) [µM] | kcat (CytA) [s⁻¹] | IC50 [3] [µM] | IC50 [4] [µM] | IC50 [5] [µM] | IC50 [6] [µM] | IC50 [7] [µM] | IC50 [8] [µM] | IC50 [9] [µM] | further results |
| --- | --- | --- | --- | --- | --- | --- | --- | --- | --- | --- | --- | --- | --- | --- | --- |
| CC[C@@]1(O[C@H]2C[C@H](N(C)C)[C@H](O)[C@H](C)O2)CCc2c(O)c3c(c(O)c2[C@H]1O[C@H]1C[C@H](N(C)C)[C@H](O[C@H]2C[C@H](O)[C@H](O[C@H]4CC[C@H](O)[C@H](C)O4)[C@H](C)O2)[C@H](C)O1)C(=O)c1cccc(O)c1C3=O [Compound 2, cytorhodin Y] | 2 (≈ 2.15 µM) | 4 (≈ 4.31 µM) | 4 (≈ 4.31 µM) | 1 (≈ 1.08 µM) | 1 (≈ 1.08 µM) |  |  | 7.25 | 3.25 | 6.17 | 16.4 | 17.5 | 9.89 | 11.8 | IC50 [10, 19]: 4.71 µM; IC50 [10, 20]: 4.46 µM |
